Where two headings read alike, the source gives them in different places.

The nature of one series: physchem. It is filed as physicochemical. To be noted: for remaining at 360 h: solid, 75% relative humidity, read-out: Content of the Active Ingredient after 15 days. How it is done:
. Then, the content of the active ingredient not decomposed was analyzed using a high performance liquid chromatography. The sample containing only the active ingredient without a stabilizer was used as a control.
<Conditions for High Performance Liquid Chromatography>
Column: μ-Bondapak C18 (4.6×250 mm) or the like
Detector: Absorption photometer in ultraviolet part (wavelength: 280 nm)
Mobile Phase: acetonitrile/phosphate buffer (pH 7.8)=45/55, v/v

Series [1] can be described thus: Stability of the microgranule prepared in the presence of a binding agent. The settings on record: microgranules of Table 3. It is filed as physicochemical. How it is done:
Microgranules were prepared according to the information represented in the following Table 3 using the stabilizers in a mole ratio of 1:1 with respect to the active ingredient (IY-81149) and using hydroxypropylmethylcellulose as a binding agent. A fluidized-bed granulator (SFC-MINI, FREUND. CO., LTD., Japan) by which the contact with the ambient moisture can be excluded and preparation and dryness of the granule can be simultaneously carried out in a short time was used. That is, the active ingredient and stabilizer were introduced into a chamber of the fluidized-bed granulator in the amounts shown in Table 3. Then, the binding agent-containing solution was sprayed under the influx air temperature (65° C.) of the chamber, during which the mixture of the active ingredient and stabilizer in the chamber was maintained at a temperature of 40° C. or less. The binding agent was used in an amount of 7% by weight with respect to the granule finally obtained, and the solvent water was used in an amount to dilute the binding agent by 15 times. Also, the total amount of the active ingredient and stabilizer to be introduced into the chamber was adjusted to 300 g. The average particle diameter of the microgranule prepared by appropriately controlling the spray rate and temperature was 0.8 mm.

In the case of `NCCCC[C@H](N)C(=O)O` [Lysine, lysine], the “stabilizing effect upon the active ingredient of the present invention” value in “physchem” (compared with the other stabilizers (Examples 1 and 2)) is listed as “much less stabilizing effect than magnesium hydroxide”.

For `[OH][Al]([OH])[OH]` [Al(OH)3, aluminum hydroxide], in “physchem”, the “stabilizing effect upon the active ingredient of the present invention” value is recorded as “much less stabilizing effect than magnesium hydroxide”.

Take `COc1ccnc(C[S+]([O-])c2nc3cc(-n4cccc4)ccc3[nH]2)c1C` (centres unmarked) [IY-81149]: the “Content of the Active Ingredient, initial” value (“Content” below) in the series “physchem” (stabilizer not used (control)) was found to be 100.1%; in the series “physchem” (with Al(OH)3, mole ratio 1:1), 99.6%; in the series “physchem” (with Arginine, mole ratio 1:1), 99.2%; in the series “physchem” (with Histidine, mole ratio 1:1), 100.6%; in the series “physchem” (with K2 CO3, mole ratio 1:1), 100.5%; in “physchem” (with K2 HPO4, mole ratio 1:1), 100.0%. The “Content” value is listed as 100.3% in “physchem” (with KHCO3, mole ratio 1:1); 100.6% in “physchem” (with Lysine, mole ratio 1:1); 99.8% in the series “physchem” (with Mg(OH)2, mole ratio 1:1); 99.4% in the series “physchem” (with Na2 CO3, mole ratio 1:1); 99.2% in the series “physchem” (with Na2 HPO4, mole ratio 1:1); 98.9% in the series “physchem” (with NaHCO3, mole ratio 1:1).

`COc1ccc2[nH]c([S+]([O-])Cc3ncc(C)c(OC)c3C)nc2c1` (centres unmarked) [Omeprazole, omeprazole, reference compound]: the “order of stabilizing effect of the tested stabilizers” value in “physchem” (mole ratio 1:1, 15 days, 40° C., relative humidity of 75%) is “Na2 HPO4 >NaHCO3 >Mg(OH)2 >arginine>Na2CO3 >K2 HPO4 >Al(OH)3 >histidine>K2 CO3 >lysine>KHCO3”. In addition, the remaining at 360 h in the series “physchem” (stabilizer not used (control), 40° C., relative humidity of 75%) came out at 26.7%; in the series “physchem” (with Al(OH)3, mole ratio 1:1, 40° C., relative humidity of 75%), 67.6%; in “physchem” (with Arginine, mole ratio 1:1, 40° C., relative humidity of 75%), 76%; in “physchem” (with Histidine, mole ratio 1:1, 40° C., relative humidity of 75%), 67.1%; in the series “physchem” (with K2 CO3, mole ratio 1:1, 40° C., relative humidity of 75%), 63.9%; in “physchem” (with K2 HPO4, mole ratio 1:1, 40° C., relative humidity of 75%), 70.7%. For the same molecule, the remaining at 360 h stood at 59.4% in the series “physchem” (with KHCO3, mole ratio 1:1, 40° C., relative humidity of 75%); 60.3% in “physchem” (with Lysine, mole ratio 1:1, 40° C., relative humidity of 75%); 86.1% in the series “physchem” (with Mg(OH)2, mole ratio 1:1, 40° C., relative humidity of 75%); 75.3% in “physchem” (with Na2 CO3, mole ratio 1:1, 40° C., relative humidity of 75%); 94% in “physchem” (with Na2 HPO4, mole ratio 1:1, 40° C., relative humidity of 75%); 87.5% in “physchem” (with NaHCO3, mole ratio 1:1, 40° C., relative humidity of 75%). Also, the “Content” value in “physchem” (stabilizer not used (control)) came to 99.3%; in “physchem” (with Al(OH)3, mole ratio 1:1), 99.6%; in “physchem” (with Arginine, mole ratio 1:1) it was 99.1%; in “physchem” (with Histidine, mole ratio 1:1) it was 99.7%; in the series “physchem” (with K2 CO3, mole ratio 1:1), 100.0%; in “physchem” (with K2 HPO4, mole ratio 1:1), 99.4%. Further, the “Content” value in “physchem” (with KHCO3, mole ratio 1:1) is reported as 99.9%; in “physchem” (with Lysine, mole ratio 1:1) it was 99.2%; in the series “physchem” (with Mg(OH)2, mole ratio 1:1), 100.2%; in “physchem” (with Na2 CO3, mole ratio 1:1) it was 100.1%; in “physchem” (with Na2 HPO4, mole ratio 1:1), 99.8%; in the series “physchem” (with NaHCO3, mole ratio 1:1), 99.7%.

Take `[Mg+2].[OH-].[OH-]` [Mg(OH)2, magnesium hydroxide]: the “stabilizing effect upon the active ingredient of the present invention” value in the series “physchem” was “superior stabilizing effect”. For the same molecule, the “stabilizing effect compared with the other stabilizers” value in series [1] is “superior stabilizing effect”.
